From US9359371B2, “Bicyclic substituted pyrimidine compounds” (Xuanzhu Pharma Co., Ltd., priority 2012, dated 2016) come the findings set out here.

The target in data set [1] is bovine retinal PDE-6 (Bos taurus (Bovine), UniProt P11541+P23439). Kind of data set: PDE-6 enzyme assay, [3H]cGMP. The following applies: for pIC50: Table 3, read-out: IC50 on PDE-6; for IC50: Table 4-1, read-out: PDE-6 (IC50 nM). The format is biochemical. The method, then:
(§1) Experiment 3: Measurement of Enzyme Activity on PDE-6 Enzyme In Vitro
(§2) Source of enzyme: PDE-6, bovine retinal PDE-6
(§3) Method: The test compound or solvent was incubated at 25° C. for 15 min with enzyme solution (0.2 μg/mL) in Tris-HCl buffer of pH 7.5. 100 μM cGMP and 0.03 μM [^3H] cGMP were then added to activate the reaction. The mixture was incubated for 20 min. The reaction was stopped at 100° C. By addition of snake venom nucleotidase, the product [^3H] GMP was converted into [^3H] Guanosine, which was separated with AG1-X2 resin. The amount of [^3H] Guanosine was measured.

Data set [2] concerns bovine retinal PDE-6. The experiment in a line: PDE-6 enzyme assay, [3H]cGMP. It counts as biochemical. To be noted: for Selectivity (PDE-6/PDE-5): IC50 for PDE-6/IC50 for PDE-5. The method, then: as §1, §2, §3
Data set [3] can be described thus: Pharmacokinetics (PK) in SD rats. It counts as in vivo. To be noted: rat; for AUC(0-inf) / Cmax / Tmax / half-life / bioavailability: SD, plasma; for bioavailability: read-out: F % (absolute bioavailability). The method, then:
Experiment 9: Assay of Pharmacokinetics (PK) of the Compounds of the Present Invention in SD Rats
Compound 1-54 of the present invention were prepared by the methods described in Example 1 to Example 54 of the present invention.
The control drug Avanafil, of which the structure was stated above, was purchased commercially.
Collection of the rat's blood: The animal was fixed. The tail was warmed with a water bath 10 min before the collection time. About 200 μL of whole blood was collected from the tail vein. The collected blood was collected into anticoagulant tubes containing heparin sodium. The blood samples were centrifuged at 4° C. by 8000 rpm for 6 min to give the plasma samples, which should be prepared within 30 min after the collection of blood. The plasma samples were stored in a freezer of −80° C. until test.
The result output by Analyst 1.5.1 of AB Company was used as the concentration of the tested sample (plasma sample). The mean value, standard deviation, variable coefficient and the like were calculated by Microsoft Excel (except for the result directly output by Analyst 1.5.1). Parameters of PK were calculated by Pharsight Phoenix 6.2 software. Formula for calculating oral bioavailability: F %=AUCinf−po*Doseiv/AUCinf−iv*Dosepo.

For data set [4], the target named is hERG channel (Homo sapiens (Human), UniProt Q12809). Kind of data set: hERG potassium channel whole-cell patch clamp on CHO-K1 cell line. The text has this:
Experiment 8: Detection of Inhibitory Effect of the Compounds of the Present Invention on hERG Potassium Channel by the Patch Clamp Method
Rapidly activated human delayed rectifying outward potassium current (IKr) is mainly mediated by hERG ion channel and is involved in repolarization of human cardiac muscle cell. Clinically, blocking of the current by a drug is the main cause of QT interval prolongation syndrome, acute arrhythmia and even sudden death. The main purpose of the experiment is to test the blocking effect of the compounds of the present invention on hERG channel, and to determine the half maximal inhibitory concentration (IC50) of the compounds.
The experiment mainly included: (1) recording hERG current by patch clamp technique on CHO-K1 cell line which stably expressed hERG channel; (2) calculating the Inhibition rate of each concentration according to hERG tail current; (3) testing each compound at 5 concentrations to calculate IC50; (4) testing 2 cells at each concentration; (5) a positive control.
The structures and synthesis of Compound 88 (WO-88) and Compound 93 (WO-93) as disclosed in WO200119802A were described in Example 55 and Example 56.
Drug for positive control: Amitriptyline hydrochloride (Sigma-Aldrich, an international standard blocker for hERG channel)
Pippette Solution (in mM): KCl 120, KOH 31.25, CaCl2 5.374, MgCl2 1.75, Ethylene glycol-bis(β-aminoethyl ether)-N,N,N′,N′-tetraacetic acid (EGTA) 10, HEPES 10, Na2-ATP 4, adjusted to a pH of 7.2 with 1N potassium hydroxide; adjusted to an osmotic pressure of 280-290 mOsm; preserved at −20° C. after filtration.
Preparation of compounds: Some of the compounds of the present invention and Amitriptyline hydrochloride as the positive control drug were separately dissolved in 100% DMSO (Merck, 61850125001730), then prepared into stock solutions of 30 mM. Before the experiment, the above stock solutions were diluted with DMSO to a concentration of 1000-fold of the experimental concentration. Then the diluted solutions were further diluted with extracellular solution by 1:1000 to the required experimental concentration. The final concentration of DMSO in the extracellular solution was kept as 0.1%.
Stable cell line CHO-hERG was purchased from AVIVA Company. The hERG current on the cell line was recorded. For the purpose of quality control, the smallest seal resistance was no less than 500 MΩ, and the hERG current was no less than 0.4 nA.
The hERG current was recorded by a whole-cell patch clamp technique. Cell suspension was added into a 35-mm culture dish. The culture dish was placed on the objective table of an inverted microscope. Upon cell attachment, perfusion was conducted with the extracellular solution at a flow rate of 1-2 mL/min.
Glass microelectrode with the pipette tip resistance of 2-5 MΩ was controlled by a microelectrode puller via a two-step process. After the whole-cell record was set up, the clamp potential was kept at −80 mV. The cell was depolarized to +60 mV by applying a voltage stimulus, and then repolarized to −50 mV to obtain the hERG tail current. Recordation was conducted after the current was stable. The extracellular perfusion was started from the lowest concentration, with 5-10 min for each concentration until the current was stable, and then conducted with the next concentration.
Stimulus payment and signal collection were performed by A/D-D/A conversion using Digidata 1440 (Molecular Devices) and pCLAMP software (Version 10.2, Molecular Devices). Signal amplification was performed on a patch clamp amplifier (Multiclamp 700B, Molecular Devices), with a filter of 1 KHz. Further data analysis and curve fitting were conducted by Clampfit (version 10.2, Molecular Devices) and Prism. The data were presented as mean value±standard deviation.
In the process of data analysis, the peak value and the baseline of the tail current were corrected when determining the blocking effect on hERG.

In data set [5] the target is PDE-5 enzyme (human blood platelets) (Homo sapiens (Human), UniProt O76074). The experiment in a line: PDE-5 enzyme assay, [3H]cGMP. To be noted: for IC50: Table 4-1, read-out: PDE-5 (IC50 nM). The format is biochemical.
The target of data set [6] is PDE-11 (Homo sapiens (Human), UniProt Q9HCR9). Kind of data set: Caliper Mobility-Shift PDE-11 Assay. The following applies: Table 4; maximum final concentration 10 μM. It counts as biochemical. The method, then:
Experiment 4: Measurement of Pharmacological Activity on PDE-11 Enzyme In Vitro
Method: enzyme assay, Caliper Mobility-Shift PDE-11 Assay
The test compound was accurately weighed, dissolved in DMSO, mixed thoroughly and formulated into 10 mM. The above stock solution was diluted to a concentration of 0.5 mM with DMSO, and then was gradiently diluted by a dilution factor of 3.162, resulting in 11 concentrations in total.
To a 96-well plate, 20 μL of 10 μM FL-cGMP as the substrate was added; then 1 μL solution of the compound in DMSO or DMSO solution without compound was added; and then 29 μL of 0.28 ng/μL PDE-11 enzyme buffer (100 mM Hepes pH 7.5, 5 mM MgCl2, 0.002% Brij-35) was added. The maximum final concentration of the compound was 10 μM. The plate was incubated at 30° C. for 1 h, and 20 μL of 70 μM EDTA was then added to stop the reaction. 26 μL of solution of each well was transferred to a 384-well plate. The conversion was read on a EZ reader II. The Inhibition rate was calculated by the formula below, and used to calculate IC50 by Prism 5.0 Inhibition rate=[Conversion (ZPE)−Conversion (sample)]×100/[Conversion (ZPE)−Conversion (HPE)]
Note: HPE: control without enzyme; ZPE: control without compound

In data set [7] the target is PDE-5A enzyme (Homo sapiens (Human), UniProt O76074). The experiment in a line: Caliper Mobility-Shift PDE-5A Assay. The following applies: Table 1; Avanafil value is the control. It counts as biochemical. The method, then: Experiment 1: Measurement of Enzymatic Activity In Vitro
PDE-5A enzyme: humanized PDE-5 enzyme, SignalChem, Cat#93-31G-20.
Method: enzyme assay, Caliper Mobility-Shift PDE-5A Assay:
The test compound was accurately weighed, dissolved in DMSO, mixed thoroughly and formulated into 10 mM.
The maximum final concentration of the compound was 10 μM. The plate was incubated at 30° C. for 1 h, and 20 μL of 70 μM EDTA was then added to stop the reaction. 26 μL of solution of each well was transferred to a 384-well plate. The conversion was read on a EZ reader II. The inhibition rate was calculated by the formula below, and used to calculate IC50 by Prism 5.0 Inhibition rate=[Conversion (ZPE)−Conversion (sample)]×100/[Conversion (ZPE)−Conversion (HPE)]
Note: HPE: control without enzyme; ZPE: control without a test compound

Setting [8] is: po, intragastric administration, 5 mg/kg.
[9] abbreviates: Table 2, human blood platelet enzyme, read-out: IC50 on PDE-5.
Where [10] appears, read: po, intragastric administration, 1 mg/kg.

SMILES strings stand for the structures. pIC50: −log10 of the molar value. Read-outs that look alike come from different tables or passages of the source.

Chain of bovine retinal PDE-6 (Bos taurus (Bovine), UniProt P11541+P23439) (P11541 whole entry, looked up): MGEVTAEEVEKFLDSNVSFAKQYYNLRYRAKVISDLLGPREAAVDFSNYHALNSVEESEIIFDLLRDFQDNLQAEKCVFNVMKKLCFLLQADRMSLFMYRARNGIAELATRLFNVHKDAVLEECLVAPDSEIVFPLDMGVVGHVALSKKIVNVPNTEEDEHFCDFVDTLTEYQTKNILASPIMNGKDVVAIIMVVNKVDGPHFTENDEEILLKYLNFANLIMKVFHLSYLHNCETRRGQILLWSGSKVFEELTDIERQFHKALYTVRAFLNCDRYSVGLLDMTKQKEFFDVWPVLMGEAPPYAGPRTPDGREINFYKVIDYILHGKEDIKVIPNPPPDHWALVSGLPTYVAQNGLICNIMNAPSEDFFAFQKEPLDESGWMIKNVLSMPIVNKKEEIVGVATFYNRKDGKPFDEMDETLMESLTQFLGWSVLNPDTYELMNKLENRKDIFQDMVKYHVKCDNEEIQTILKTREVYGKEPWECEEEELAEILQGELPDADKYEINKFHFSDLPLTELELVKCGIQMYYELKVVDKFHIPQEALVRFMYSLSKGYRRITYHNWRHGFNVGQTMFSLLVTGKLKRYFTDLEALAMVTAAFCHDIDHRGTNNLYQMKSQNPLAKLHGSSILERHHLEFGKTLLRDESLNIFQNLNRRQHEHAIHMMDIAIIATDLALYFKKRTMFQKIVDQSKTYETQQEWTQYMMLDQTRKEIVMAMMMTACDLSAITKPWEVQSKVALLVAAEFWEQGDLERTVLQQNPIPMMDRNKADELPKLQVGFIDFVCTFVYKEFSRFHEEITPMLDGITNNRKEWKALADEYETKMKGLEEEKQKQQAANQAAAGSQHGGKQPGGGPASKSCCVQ
Chain of bovine retinal PDE-6 (Bos taurus (Bovine), UniProt P11541+P23439) (P23439 whole entry, looked up): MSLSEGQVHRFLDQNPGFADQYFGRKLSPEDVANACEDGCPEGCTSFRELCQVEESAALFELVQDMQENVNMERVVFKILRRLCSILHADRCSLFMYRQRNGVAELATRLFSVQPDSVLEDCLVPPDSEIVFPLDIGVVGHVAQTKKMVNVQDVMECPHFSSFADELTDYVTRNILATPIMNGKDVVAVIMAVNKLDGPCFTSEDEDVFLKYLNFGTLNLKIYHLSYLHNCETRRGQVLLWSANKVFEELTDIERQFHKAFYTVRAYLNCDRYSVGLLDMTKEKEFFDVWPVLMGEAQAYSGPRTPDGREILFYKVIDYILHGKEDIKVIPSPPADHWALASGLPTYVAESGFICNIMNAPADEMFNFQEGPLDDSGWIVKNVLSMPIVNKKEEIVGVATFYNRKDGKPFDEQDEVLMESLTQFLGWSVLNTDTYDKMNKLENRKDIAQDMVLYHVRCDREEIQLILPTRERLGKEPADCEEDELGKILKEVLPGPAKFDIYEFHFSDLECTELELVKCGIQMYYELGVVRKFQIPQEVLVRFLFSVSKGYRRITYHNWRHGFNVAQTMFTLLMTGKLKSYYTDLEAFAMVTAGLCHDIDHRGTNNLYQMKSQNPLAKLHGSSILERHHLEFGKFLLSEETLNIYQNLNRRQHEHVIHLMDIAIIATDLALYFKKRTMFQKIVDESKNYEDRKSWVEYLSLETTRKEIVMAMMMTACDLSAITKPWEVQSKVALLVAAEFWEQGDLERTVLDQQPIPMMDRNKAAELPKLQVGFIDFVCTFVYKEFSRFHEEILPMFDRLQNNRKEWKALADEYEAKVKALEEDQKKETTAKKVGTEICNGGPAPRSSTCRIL
Chain of hERG channel (Q12809 whole entry): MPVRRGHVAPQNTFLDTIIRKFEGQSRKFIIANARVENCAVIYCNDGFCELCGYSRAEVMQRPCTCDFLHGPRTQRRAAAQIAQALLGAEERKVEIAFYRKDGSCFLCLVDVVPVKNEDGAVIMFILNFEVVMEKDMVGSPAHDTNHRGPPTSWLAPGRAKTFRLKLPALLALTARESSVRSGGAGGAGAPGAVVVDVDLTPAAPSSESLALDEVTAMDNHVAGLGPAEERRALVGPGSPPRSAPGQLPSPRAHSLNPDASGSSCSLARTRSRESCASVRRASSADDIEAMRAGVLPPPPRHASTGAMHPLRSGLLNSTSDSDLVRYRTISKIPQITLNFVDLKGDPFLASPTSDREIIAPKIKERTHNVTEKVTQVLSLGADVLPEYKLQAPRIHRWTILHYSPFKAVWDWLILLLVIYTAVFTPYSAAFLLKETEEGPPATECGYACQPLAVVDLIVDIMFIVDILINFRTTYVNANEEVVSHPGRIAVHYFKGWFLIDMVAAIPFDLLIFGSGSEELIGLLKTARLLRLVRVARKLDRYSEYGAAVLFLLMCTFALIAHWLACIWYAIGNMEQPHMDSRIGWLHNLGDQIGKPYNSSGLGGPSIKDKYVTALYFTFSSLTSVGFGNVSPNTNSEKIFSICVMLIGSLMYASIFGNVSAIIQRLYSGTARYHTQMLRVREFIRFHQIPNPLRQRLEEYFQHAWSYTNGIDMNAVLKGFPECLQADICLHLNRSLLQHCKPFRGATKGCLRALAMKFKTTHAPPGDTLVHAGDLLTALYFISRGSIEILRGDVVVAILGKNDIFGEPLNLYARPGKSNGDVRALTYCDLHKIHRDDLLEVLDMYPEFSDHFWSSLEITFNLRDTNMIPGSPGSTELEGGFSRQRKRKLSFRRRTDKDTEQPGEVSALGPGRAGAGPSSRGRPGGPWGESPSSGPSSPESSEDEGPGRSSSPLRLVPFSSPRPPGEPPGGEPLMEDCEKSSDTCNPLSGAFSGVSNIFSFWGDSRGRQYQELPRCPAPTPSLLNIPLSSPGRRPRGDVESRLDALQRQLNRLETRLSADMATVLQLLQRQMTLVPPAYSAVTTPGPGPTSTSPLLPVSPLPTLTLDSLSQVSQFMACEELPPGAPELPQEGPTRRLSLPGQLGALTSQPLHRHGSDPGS
Chain of PDE-11 (Q9HCR9 whole entry): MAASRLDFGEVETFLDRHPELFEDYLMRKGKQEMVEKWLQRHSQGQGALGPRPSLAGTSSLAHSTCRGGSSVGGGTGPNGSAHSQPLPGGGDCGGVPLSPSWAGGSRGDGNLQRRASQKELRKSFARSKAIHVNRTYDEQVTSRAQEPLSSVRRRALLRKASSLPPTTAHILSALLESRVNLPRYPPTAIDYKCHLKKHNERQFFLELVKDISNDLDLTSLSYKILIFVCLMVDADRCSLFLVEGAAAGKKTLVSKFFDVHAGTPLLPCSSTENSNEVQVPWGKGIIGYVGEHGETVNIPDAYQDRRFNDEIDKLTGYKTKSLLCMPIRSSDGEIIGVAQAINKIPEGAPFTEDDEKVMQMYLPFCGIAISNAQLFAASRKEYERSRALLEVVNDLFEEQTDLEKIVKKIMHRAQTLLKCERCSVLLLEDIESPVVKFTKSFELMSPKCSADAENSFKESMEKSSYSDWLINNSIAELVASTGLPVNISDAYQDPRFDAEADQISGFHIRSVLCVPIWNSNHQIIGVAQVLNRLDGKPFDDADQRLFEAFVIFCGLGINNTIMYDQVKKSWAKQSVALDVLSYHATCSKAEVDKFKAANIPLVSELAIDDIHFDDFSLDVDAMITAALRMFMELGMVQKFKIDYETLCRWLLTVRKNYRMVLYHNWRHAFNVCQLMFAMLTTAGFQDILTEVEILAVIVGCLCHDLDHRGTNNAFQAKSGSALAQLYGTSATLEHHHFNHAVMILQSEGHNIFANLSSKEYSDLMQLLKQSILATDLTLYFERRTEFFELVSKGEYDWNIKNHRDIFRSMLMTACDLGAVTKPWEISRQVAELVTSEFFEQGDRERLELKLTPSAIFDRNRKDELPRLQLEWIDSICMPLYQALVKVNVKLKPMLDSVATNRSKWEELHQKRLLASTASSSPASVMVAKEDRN

With `COc1ccc(CNc2nc(N3CC4CC4C3)ncc2C(=O)N[C@H]2CC[C@H](O)CC2)cc1C` (stereo partly drawn) [Compound 50, 2-(3-azabicyclo[3.1.0]hexan-3-yl)-N-((trans)-4-hydroxycyclohexyl)-4-((4-methoxy-3-methylbenzyl)amino)pyrimidine-5-formamide], in data set [1], the pIC50 (usually the negative decadic logarithm of the IC50, by convention in mol/L) is 6.18 and the IC50 (in general, the concentration that gives 50% inhibition) was 660 nM. Further, the “Selectivity (PDE-6/PDE-5)” value in data set [2] stood at 85. In addition, the “selectivity on PDE-5 enzyme versus PDE-6 (in words)” value in data set [2] (selectivity >70 called high) is “higher selectivity on PDE-5 enzyme than to PDE-6”. Also, in data set [3] (setting [8]), the AUC(0-inf) (as a rule, the area under the concentration-time curve extrapolated to infinity) was 4720 ng·h/mL; the highest level (Cmax) was 377 ng/mL; the Tmax (commonly the time at which the peak concentration occurs) was 6 h; the half-life (commonly the time in which the quantity being followed falls by half) is 5.4 h. The bioavailability (usually dose-corrected exposure relative to a reference, in per cent) in data set [3] (setting [8]) is 65%. In data set [3] (intravenous injection, 2 mg/kg), this molecule showed a total exposure AUC(0-inf) of 2580 ng·h/mL, a half-life of 4.1 h, a Cl_obs of 13 mL/min/kg and a Vss_obs of 4.48 L/kg. The molecule further had a pIC50 in data set [4] of less than 4.52. For the same molecule, the “inhibitory effect on hERG channel (in words)” value in data set [4] (human, CHO-K1 cells stably expressing hERG channel, pH 7.4) was “none of Compound 3, 11 and 50 of the present invention had a significant inhibitory effect”. The pIC50 in data set [5] (setting [9]) is 8.11. Further, the IC50 in data set [5] came to 7.72 nM.
For the molecule `COc1ccc(CNc2nc(N3CCC[C@H]3CO)ncc2C(=O)N[C@H]2CC[C@H](O)CC2)cc1Cl` [WO-88, N-((trans)-4-hydroxylcyclohexan-1-yl)-4-((3-chloro-4-methoxybenzyl)amino)-2-((s)-2-(hydroxymethyl)tetrahydropyrrole-1-yl)-5-pyrimidine formamide, reference compound], in data set [3] (setting [10]), the AUC(0-inf) stood at 63 ng·h/mL, the Cmax (commonly the maximum level reached in the sampled fluid or tissue) worked out at 29 ng/mL, the Tmax is 0.5 h and the half-life was 2.8 h. For the same molecule, the bioavailability in data set [3] (setting [10]) was found to be 23%. Moreover, in data set [3] (intravenous injection, 1 mg/kg), the area under the curve AUC(0-inf) stood at 347 ng·h/mL, the half-life was 1 h, the Cl_obs was 48.3 mL/min/kg and the Vss_obs is 3.6 L/kg. Moreover, the pIC50 in data set [4] was less than 4.52. In addition, in data set [5], the pIC50 is 9.23.
`COc1ccc(CNc2nc(N3Cc4cccnc4C3)ncc2C(=O)N[C@H]2CC[C@H](O)CC2)cc1Cl` [WO-93, N-(trans-4-hydroxycyclohexan-1-yl)-4-((3-chloro-4-methoxybenzyl)amino)-2-(5H-pyrrolo[3,4-b]pyridin-6(7H)yl)-5-pyrimidine formamide, reference compound]: in data set [3] (setting [10]), the AUC(0-inf) was 89 ng·h/mL, the Cmax is 15 ng/mL, the Tmax is 4 h and the half-life was 2.8 h. In data set [3] (setting [10]), the bioavailability worked out at 16%. In data set [3] (intravenous injection, 1 mg/kg), the AUC(0-inf) stood at 709 ng·h/mL, the half-life is 2.6 h, the Cl_obs came to 25 mL/min/kg and the Vss_obs stood at 5.0 L/kg. Further, the pIC50 in data set [4] was less than 4.52.
In the case of `COc1ccc(CNc2nc(N3CCC4(CC4)C3)ncc2C(=O)NCCN2CCN(C)CC2)cc1Cl` [Compound 46, 4-((3-chloro-4-methoxybenzyl)amino)-N-(2-(4-methylpiperazin-1-yl)ethyl)-2-(5-azaspiro[2.4]heptan-5-yl)pyrimidine-5-formamide], in data set [1], the pIC50 is 6.51 and the IC50 was 310 nM. The “Selectivity (PDE-6/PDE-5)” value in data set [2] was determined as 1000. Also, the pIC50 in data set [6] was less than 5.00. In data set [3] (intravenous injection, 1 mg/kg), this molecule gave an AUC(0-inf) of 214 ng·h/mL, a half-life of 13.9 h, a Cl_obs of 79 mL/min/kg and a Vss_obs of 86.40 L/kg. The pIC50 in data set [7] was 7.83. In data set [5] (setting [9]), the pIC50 was 9.51. Also, in data set [5], the IC50 came out at 0.31 nM.
